Experimental data as given in article PMC4113810, “Hainanerectamines A–C, Alkaloids from the Hainan Sponge Hyrtios erecta” (Marine Drugs, 2014).

What follows are molecules tested against T1, Aurora A (Homo sapiens, UniProt O14965) (assay: Z-LYTE kinase assay (peptide/kinase mixture with ATP, fluorescence)).
T1 construct: gene AURKA
T1 sequence (O14965 1-403): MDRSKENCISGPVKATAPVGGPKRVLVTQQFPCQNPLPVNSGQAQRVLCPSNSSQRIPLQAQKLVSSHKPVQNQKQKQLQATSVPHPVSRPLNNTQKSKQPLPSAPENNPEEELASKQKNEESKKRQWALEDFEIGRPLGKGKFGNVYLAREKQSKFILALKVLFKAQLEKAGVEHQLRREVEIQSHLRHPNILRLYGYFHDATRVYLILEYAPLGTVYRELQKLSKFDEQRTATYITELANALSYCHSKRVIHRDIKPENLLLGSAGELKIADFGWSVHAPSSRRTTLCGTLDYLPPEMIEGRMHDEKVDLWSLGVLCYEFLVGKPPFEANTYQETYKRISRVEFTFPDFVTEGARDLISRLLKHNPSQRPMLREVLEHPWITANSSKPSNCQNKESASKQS
Format: biochemical

Question: For `C/C=C(/C=O)c1c[nH]c2ccc(O)cc12` [compound 2, hainanerectamine B], which IC50 is on record?
Answer: 122 µM

Question: How did the IC50 turn out when `O=C(O)[C@@H]1Cc2c([nH]c3ccc(O)cc23)[C@H](Cc2c[nH]cn2)N1` [compound 3, (−)-(1R^*, 3R^*)-6-hydroxy-1-(4-methylene-1H-imidazole)-2,3,4,9-tetrahydro-1H-β-carboline-3-carboxylic acid] was run?
Answer: 43.5 µM

Question: `CSc1ncn(C)c1C[C@@H]1N[C@H](C(=O)O)Cc2c1[nH]c1ccc(O)cc21` [compound 4, hainanerectamine C] was tested. Which IC50 did it give?
Answer: 49.9 µM
